We go through three compounds from patent US12729209B2, “Macrocyclic compounds and methods of treatment” (University of Florida Research Foundation, Incorporated, priority 2020, dated 2026).

Data set [1] relates to HCT116 colorectal cancer cells. Description: MTT cell viability assay, parental HCT116. The format is cell-based, human. The conditions noted are these: for IC50: 48 h treatment, read-out: IC50 against HCT116 colorectal cancer cells. The method, then: (§1) Parental HCT116, HCT116^HIF-1α−/−HIF-2α−/−, HCT116^HIF-1α−/−, HCT116^HIF-2α−/−, HCT116^WT KRAS along with normal colon cell line CCD841-CoN were cultured in Dulbecco's modified Eagle medium (DMEM, Life Technologies, USA) supplemented with 10% Fetal Bovine Serum (FBS, Sigma, USA) and maintained in 5% CO2 at 37° C. HCT116 cells (8,000 cells/well) and normal cells (3,000 cells/well) were seeded in 96-well plates, allowed to attach overnight and then treated with different concentrations of GB1 (1a) or solvent control (0.5% DMSO). Cell viability was measured 48 h following treatment with MTT dye using manufacturer's protocol (Promega). IC50 was determined by non-linear regression analysis using GraphPad Prism 8. Data are represented as average±SD (n=3).
(Tetrazolium assays rely on reduction of a dye to a coloured formazan, in cell work by metabolically active cells.)

For data set [2] the following is noted: from C=CCON(C(=O)[C@H]([C@@H](O[Si](C)(C)C(C)(C)C)C(=O)NC(c1ccccc1)(c1ccccc1)c1ccccc1)N(C)C(=O)C(C)OC(=O)[C@@H]1CC(C)CN1C(=O)OCC1c2ccccc2-c2ccccc21)[C@@H](C)C(=O)N[C@@H](C[Se]c1ccccc1)C(=O)OCC1c2ccccc2-c2ccccc21; amide bond; PyBOP/HOAt/DIEA; CH2Cl2; 0.61 mM; 25.0 °C; 24.0 h; 2 steps.
Data set [3] relates to HCT116 cells. In words: HCT116 cell cycle analysis (propidium iodide, flow cytometry). The format is cell-based, human. To be noted: 320 nM, 1 μM, 3.2 μM, 24 h. The protocol:
FIG. 25 depicts a cell cycle analysis. HCT116 cells were treated with GB1 (320 nM, 1 μM, 3.2 μM) or vehicle control (0.25% DMSO) for 24 h and DNA content assessed by flow cytometry of propidium iodide stained cells.
HCT116 cells were seeded in 6-well plates (400,000 cells/well, DMEM/10% FBS and allowed to attach overnight prior to treatment with GB1. Media was replaced by fresh DMEM/10% FBS after 24 h of incubation and treated with compound and solvent control (0.25% DMSO) for 24 h. The medium in each well was collected separately, and the cells washed with 500 μL PBS and collected into the corresponding tubes. Cells were detached using trypsin (Invitrogen) and collected into the corresponding tubes and centrifuged at 400 g for 10 min at 4° C. The supernatant was discarded and the cell pellets were resuspended in 500 μL ice-cold PBS, centrifuged at 400 g for 10 min at 4° C. and supernatant was discarded. The cell pellets were resuspended in 300 μL ice-cold PBS and 700 μL ice-cold EtOH was added slowly to each cell suspension with gentle pipetting. Cells were incubated at −20° C. overnight and centrifuged at 400 g for 10 min at 4° C. next day. […] Fluorescence from propidium iodide-DNA complexes were quantified using FACScan (BD Biosciences LSRFortessa) and data were analyzed using ModFit LT (Verity Software House).
For orientation: A flow cytometer gives signals particle by particle.

In the next data set the test system is HCT116^HIF-1α−/− cells. In words: MTT cell viability assay, isogenic HCT116 HIF-1α knockout. The format is cell-based, human. The conditions noted are these: 48 h, versus parental HCT116. The protocol:
as §1

The test system of data set [4] is CCD841-CoN normal epithelial colon cells. In words: MTT cell viability assay, normal colon cells. The format is cell-based. The conditions noted are these: 48 h treatment. The method, then: as §1
The subject of a further data set is tubulin. Description: Tubulin polymerization assay (fluorescence based in vitro kit). The format is biochemical. To be noted: tubulin 2 mg/mL, 37° C., 1 hour. The protocol: Tubulin polymerization was performed using fluorescence based in vitro polymerization kit (Cytoskeleton, #BK011P) per the manufacturer recommendation. Briefly, the provided tubulin was reconstituted to 10 mg/mL stock, as recommended, and used at final concentration of 2 mg/mL in 80 mM PIPES pH 6.9, 2.0 mM MgCl2, 0.5 mM EGTA, 1.0 mM GTP and 15% glycerol for the assays. The compound was prepared in 3-fold dilutions and kept on ice until the assay was started. Buffer components and tubulin stocks were kept on ice until use. The assay plate was pre-warmed at 37° C. for 10 minutes and the compounds were added to the plate wells at 5 uL (<10% DMSO) for 1 minute to warm. Fifty microliters of tubulin reaction mix (2 mg/mL in 80 mM PIPES pH 6.9, 2.0 mM MgCl2, 0.5 mM EGTA, 1.0 mM GTP and 15% glycerol) was added to each well and mixed gently with the inhibitor to avoid bubble formation. The plate was read on FlexStation3 reader (Molecular Devices) at 360 nm excitation/450 nm emission, every minute for 1 hours at 37° C. Decrease in fluorescent signal indicated inhibition of polymerization.

Data set [5] has as its system ovarian (OVCAR-3) cancer cells. Description: NCI-60 screen, OVCAR-3. The format is cell-based. To be noted: NCI-60 data. An excerpt: (§2) FIG. 27 depicts a heatmap for the performance of GB1 across cell lines in the NCI-60 screen using three different values (growth-inhibitory effect, GI50; cytostatic effect, TGI; cytotoxic effect, LC50; concentration in M).
The subject of another data set is HCT116^HIF-2α−/− cells. In words: MTT cell viability assay, isogenic HCT116 HIF-2α knockout. The format is cell-based, human. The conditions noted are these: 48 h, compared among isogenic lines. The protocol: as §1
Data set [6] has as its system HCT116 cells. In words: NCI-60 screen (sulforhodamine B assay), HCT116. The format is cell-based, human. To be noted: NCI-60 data, read-out: GI50 against HCT116 cells.
Source text: as §2
A general note: The SRB assay estimates cell density from bound dye.

In data set [7] the test system is HCT116^HIF-1α−/−HIF-2α−/− cells. In words: MTT cell viability assay, isogenic HCT116 double knockout. To be noted: 48 h, versus parental HCT116. The format is cell-based, human. The method, then:
as §1

In the next data set the test system is HCT116^WT KRAS cells. Description: MTT cell viability assay, oncogenic KRAS knockout. To be noted: 48 h, versus parental HCT116. The format is cell-based, human. The method, then: as §1
The next data set concerns COLO205 cells. In words: NCI-60 screen (sulforhodamine B assay), COLO205. The format is cell-based. To be noted: NCI-60 data, read-out: GI50 against COLO205 cells.
Source text: as §2

Data set [8] has as its system melanoma (SK-MEL-5) cancer cells. Description: NCI-60 screen, SK-MEL-5. To be noted: NCI-60 data. The format is cell-based.
Source text: as §2

In the next data set the test system is NCI-60 cell lines. The conditions noted are these: versus paclitaxel, eribulin, colchicine and vinca bis-indole alkaloid derivatives. The text has this: Furthermore, cervical and breast cancers are relevant indications, prompting additional studies in these cell types^35.
A further data set relates to HeLa cells. In words: Caspase-3/7 activity (Caspase-Glo 3/7) in HeLa cells. The format is cell-based. The conditions noted are these: increasing concentrations, 14 h, 24 h and 36 h. The protocol:
FIG. 29 depicts that GB1 causes apoptosis in HeLa cells with increased caspase activity. HeLa cells were treated with increasing concentrations of GB1 and combretastatin-4 (CA-4) (100 nM) using 0.5% DMSO as solvent control. Caspase-3/7 activity was measured using Caspase-Glo 3/7 reagent kit at 14 h, 24 h and 36 h. Data represents average of three replicates with ±SD. The p-values were calculated using two-tailed Student t-test; *p<0.05, **p<0.01, ***p<0.005.

In a further data set the test system is VEGFA. Description: HIF target gene (VEGFA) expression by RT-qPCR. The format is cell-based, human. To be noted: 3.2 μM (4×IC50), 16 h, parental HCT116 cells, β-actin endogenous control. The protocol: FIG. 26 depicts HIF target gene (VEGFA) expression after 16 h exposure of parental HCT116 cells to GB1 (3.2 μM) or vehicle (0.25% DMSO). RNA was isolated, reverse transcribed and subjected to qPCR using TaqMan analysis. β-actin served as endogenous control. Error bars indicate mean±SD of three replicates (student t test, *p<0.05).
HCT116 cells were seeded in 6-well plates at a density of 4×10^5 per well and incubated overnight for cells to attach. Cells were treated with 3.2 μM GB1 or 0.25% DMSO (vehicle). RNA was isolated 16 h later using the RNeasy mini kit (QIAGEN, Valencia, CA). Total RNA was quantified using NanoDrop 2000. cDNA synthesis was carried out using SuperScript II Reverse Transcriptase (Invitrogen, Carlsbad, CA) and oligo (dT) (Invitrogen) from 2 μg of total RNA. The qPCR after reverse transcription (RT-qPCR) was performed on a 25 μL reaction solution containing a […] aliquot of cDNA, 12.5 μL of TaqMan gene expression master mix, 1.25 μL of probes, and 11 μL RNase-free water. qPCR was carried out on an ABI 7300 sequence detection system using the thermocycler program: 2 min at 50° C., 10 min at 95° C., and 15 s at 95° C. (40 cycles) and 1 min at 60° C. Experiments were performed in triplicate. Probes for target gene: VEGFA (Hs00900055_m1) and for endogenous control: β-actin (Hs99999903_m1). […]

In data set [9] the test system is prostate (DU-145) cancer cells. Description: NCI-60 screen, DU-145. The format is cell-based. To be noted: NCI-60 data.
Source text: as §2

Data set [10] can be described thus: Qualitative test for Fe(III) chelating ability. The format is physicochemical. The conditions noted are these: FeCl3 solution in ethanol (5% wt), orange spot. An excerpt:
We applied a solution of GB1 (1a) in CH2Cl2 to reverse TLC (C18) (MeOH/H2O 1:1, v/v), then dipped the TLC into FeCl3 solution in ethanol (5% wt).

Numbered stars: 1 amine (or outer) side, 2 acyl side, 3 side chain; on linkers, the order of the positions; unused ones are H or OH. Square brackets hold non-standard residues; d marks the D form. Peptide text beside a SMILES is read from it. X1 = CN([C@H](C(=O)[*:2])[C@@H](O)C(N)=O)[*:1]; Pro(4S-Me) = C[C@@H]1CN[C@H](C(=O)O)C1; N(OH)Ala = C[C@H](NO)C(=O)O; Lac = C[C@H](O)C(=O)O; Dha = C=C(N)C(=O)O

What is called IC50 is the concentration needed to halve the response being measured. Regarding Gatorbulin-2 [GB2], the IC50 in [1] was more than 10000 nM.
`C=CCON1C(=O)[C@H]([C@@H](O[Si](C)(C)C(C)(C)C)C(=O)NC(c2ccccc2)(c2ccccc2)c2ccccc2)N(C)C(=O)C(C)OC(=O)[C@@H]2CC(C)CN2C(=O)[C@H](C[Se]c2ccccc2)NC(=O)[C@@H]1C` (stereo partly drawn) gave a ring closure, yield of all isomers in data set [2] of 60.3%.
The GI50 is the concentration that inhibits growth by half. Turning to `C=C1NC(=O)[C@H](C)N(O)C(=O)[C@H]([C@@H](O)C(N)=O)N(C)C(=O)[C@H](C)OC(=O)[C@@H]2C[C@H](C)CN2C1=O` [GB1, Gatorbulin-1] (cyclo([Dha][Pro(4S-Me)][Lac][X1][N(OH)Ala])), the “cell cycle effect (DNA content)” value in the data set with HCT116 cells [3] is reported as “induced G2/M accumulation”. The “potency and efficacy against HCT116^HIF-1α−/−” value in the data set on HCT116^HIF-1α−/− cells is reported as “reduced”. The “effect on the viability of CCD-841CoN normal epithelial colon cells” value in [4] is reported as “marginal effect”. Also, the IC50 in [4] (read-out: IC50 against normal mucosal colon cells) is more than 10000 nM; in data set [1], 800 nM. Also, the “antiproliferative activity, relative susceptibility of parental HCT116 cells” value in data set [1] (48 h, compared among isogenic lines) is “most susceptible”. The “inhibition of tubulin polymerization in vitro” value in the data set with tubulin is “directly inhibits tubulin polymerization”. For the same compound, the “susceptibility of OVCAR-3 ovarian cancer cells” value in data set [5] is on record as “susceptible”. In addition, in the data set on HCT116^HIF-2α−/− cells, the “antiproliferative activity, relative susceptibility of HCT116^HIF-2α−/−” value is recorded as “most susceptible”. Also, the GI50 in the data set with HCT116 cells [6] worked out at 306 nM; in the data set on COLO205 cells, 92 nM. Besides, the “potency and efficacy against HCT116^HIF-1α−/−HIF-2α−/−” value in data set [7] is “reduced”. For the same compound, in the data set on HCT116^WT KRAS cells, the “potency and efficacy against oncogenic KRAS knockout (HCT116^WT KRAS)” value was “reduced”. For the same compound, the “susceptibility of SK-MEL-5 melanoma cells” value in [8] was “susceptible”. For the same compound, the “COMPARE correlation (P) of cytotoxicity profile with antimitotic/tubulin agents” value with NCI-60 cell lines was 0.75-0.85. Also, the “caspase-3/7 activity / apoptosis in HeLa cells” value in the data set on HeLa cells was “induces apoptosis”. In addition, the “HIF-1α target gene VEGFA expression” value in the data set on VEGFA is listed as “downregulation”. The “susceptibility of DU-145 prostate cancer cells” value in data set [9] was “susceptible”. Also, the “Fe(III) chelating ability (FeCl3 on TLC)” value in data set [10] is “positive reaction”.
